Measured values taken from PubChem BioAssay (NCI).
Several values for one entry are separate records, joined by “and”; a condition that tells them apart may be missing. Equal values may be shown once.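 Cultured in 96-well plates, cells were exposed to test compound for 48 hours across five concentrations. At the GI50, growth is halved. Definition used: TGI = concentration required for complete inhibition of growth.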

What was measured:
Test in all cases: inhibition of tumour cell growth, NCI panel, 48 h
SK-MEL-28 melanoma = tested on: SK-MEL-28 melanoma
NCI-H460 lung = tested on: NCI-H460 lung
UO-31 renal = tested on: UO-31 renal
SNB-19 CNS = tested on: SNB-19 CNS
SF-295 CNS = tested on: SF-295 CNS
HCC-2998 colon = tested on: HCC-2998 colon
TK-10 renal = tested on: TK-10 renal
SNB-75 CNS = tested on: SNB-75 CNS
M14 melanoma = tested on: M14 melanoma
HCT-15 colon = tested on: HCT-15 colon

Row | Compound | TGI (SK-MEL-28 melanoma) [µM] | TGI (NCI-H460 lung) [µM] | TGI (UO-31 renal) [µM] | TGI (SNB-19 CNS) [µM] | TGI (SF-295 CNS) | TGI (HCC-2998 colon) [µM] | TGI (TK-10 renal) [µM] | TGI (SNB-75 CNS) | TGI (M14 melanoma) [µM] | TGI (HCT-15 colon) [µM] | GI50 (SK-MEL-28 melanoma) [µM] | GI50 (UO-31 renal) [µM] | GI50 (SNB-19 CNS) [µM] | GI50 (SF-295 CNS) [µM] | GI50 (HCC-2998 colon) [µM] | GI50 (TK-10 renal) [µM] | GI50 (SNB-75 CNS) [µM] | GI50 (M14 melanoma) [µM] | GI50 (HCT-15 colon) [µM] | GI50 (NCI-H460 lung) [µM]
1 | Cc1ccc(-c2nnc(-c3ccc4ccccc4c3)o2)cc1 | > 100 | > 100 | > 100 | > 100 | > 100 µM | > 100 | > 60.6 | 82.7 µM | > 93.2 | > 100 |  |  |  |  |  |  |  |  |  | 
2 | CC1(C)COC(c2ccc(C(F)(F)F)cc2C(O)c2ccc3ccccc3c2)=N1 (centres undefined) | > 100 | > 10 | > 100 | > 100 | > 10 µM and 42.5 µM | > 100 | > 100 | > 10 µM and 37.9 µM | > 100 | > 100 | > 100 | > 100 | > 10 | > 10 | > 100 | > 100 | > 10 | > 100 | > 100 | 
3 | Cc1cc(=O)n2[nH]c(-c3ccc(C(C)(C)C)cc3)cc2n1 | > 100 | 38 | > 100 | > 100 | 22.7 µM | > 100 | 61.8 | 46.8 µM | > 100 | > 100 | 20.6 | 3.17 | 10.1 | 2.47 | 8.59 | 3.5 | 7.9 | 12.7 | 5.79 | 3.03
4 | Cc1nc2c(nc1C)C(=O)c1ccccc1C2=O | 4.76 | 3.2 | 36.2 | 19.4 | 4.38 µM | 15 | 79.5 | 6.15 µM | 2.26 | 8.3 |  |  |  |  |  |  |  |  |  | 
5 | O[C@H]1[C@H]2c3cc4c(cc3CN3CCC(=C[C@@H]1O)[C@H]23)OCO4 | 22.6 | 5.88 | 4.77 | 14.9 | > 68.8 µM | 8.84 | 11.9 | 24.9 µM | 8.2 | 5.32 |  |  |  |  |  |  |  |  |  | 
6 | Oc1ccc(Cl)cc1-c1cc(-c2ccccc2Cl)[nH]n1 | > 100 | > 100 | > 100 | > 100 | > 100 µM | 17.4 | > 100 | > 100 µM | > 100 | > 100 | > 100 | 3.77 | > 100 | 8.71 | 2.86 | 29.4 | 2.77 | 25.9 | 0.488 | 3.47
7 | COc1ccccc1NC(=O)CC(=O)n1nc(C)c(N=Nc2ccccc2C(=O)O)c1C | > 100 | > 100 | > 100 | > 100 | > 100 µM | > 100 | > 100 | > 100 µM | > 100 | > 100 |  |  |  |  |  |  |  |  |  | 
8 | COc1cc2nc(C)nc(N[C@H](C)c3cc(N)cc(C(F)(F)F)c3)c2cc1O[C@H]1CCOC1 | 29.6 | 36.6 | 17.3 | 27.4 | 24.8 µM | 33.2 | 20.6 | 23.3 µM | 31.7 | 27.6 | 16 | 2.28 | 12.7 | 11.6 | 17 | 2.9 | 10.4 | 16.1 | 12.6 | 18.5
9 | CNC(=O)c1ccccc1Nc1nc(Nc2ccc(N3CCOCC3)cc2OC)ncc1Cl | > 37.1 | > 34.4 | 4.44 | > 100 | 11.1 µM | > 43.2 | 2.01 | 5.44 µM | > 62.8 | > 40.8 | 1.35 | 0.4 | 2.05 | 0.503 | 0.636 | 0.197 | 0.766 | 0.541 | 0.542 | 0.361
10 | O=C1c2cccnc2-c2nc(-c3ccccc3[N+](=O)[O-])cc3c2c1nc1ccccc13 | > 63.5 | 33.8 | 32.5 | 84.7 | > 85.9 µM | 45 | 36.3 | 52 µM | 10.7 | 32.9 | 27.6 | 12.5 | 24.2 | 25.9 | 19.7 | 14.7 | 17.3 | 2.99 | 12 | 12
11 | Cc1cc(=O)[nH]c2cc3oc4ccccc4c3cc12 | > 100 | > 100 | > 100 | > 100 | > 100 µM | 16.3 | > 100 | > 100 µM | > 100 | > 100 |  |  |  |  |  |  |  |  |  | 
12 | O=C(/C=C/c1ccccc1Cl)c1ccc(Cl)c(Cl)c1 | 40.4 | > 100 | 30.9 | 29.9 | 31.3 µM | 28.8 | 38.8 | 27.3 µM | 33.4 | 32.2 |  |  |  |  |  |  |  |  |  | 
13 | O=C(Nc1ccc(F)cc1F)c1cc(I)ccc1O | 6.84 | > 100 | 6.11 | > 100 | 3.94 µM | 47 | 31.1 | 4.58 µM | 8.05 | 45.5 | 1.93 | 1.63 | 3.11 | 1.95 | 3.73 | 4.73 | 1.36 | 2.21 | 3.27 | 3.13
14 | C=CCc1cc(OC)c2c(c1)C(O)CC(c1ccc(OC)c(OC)c1)O2 (centres undefined) | > 100 | > 100 | > 100 | > 100 | > 100 µM | > 100 | > 100 | > 100 µM | > 100 | > 100 |  |  |  |  |  |  |  |  |  | 
15 | C=C(CNCCO)[C@@H]1CC[C@]2(CO)CC[C@]3(C)[C@H](CC[C@@H]4[C@@]5(C)CCC(N)C(C)(C)[C@@H]5CC[C@]43C)[C@@H]12 (some centres undefined) | 3.6 | 4.12 | 26.8 | 5.23 | 3.52 µM | 3.81 | 7.07 | 3.93 µM | 3.97 | 19 | 1.96 | 13.2 | 2.27 | 1.73 | 1.98 | 2.54 | 1.4 | 2.05 | 5.57 | 1.94
